Measured values from ChEMBL document CHEMBL4715697, “Synthesis and biological activity of benzamide DNA minor groove binders” (2016).

Columns and labels:
Format in all cases: functional
SNB-19 [1] = experiment: Growth inhibition of human SNB-19 cells assessed as cell growth at 100 uM incubated for 48 hrs by sulforhodamine B assay relative to control; details: read-out: Activity
SK-MEL-5 = experiment: Growth inhibition of human SK-MEL-5 cells assessed as cell growth at 100 uM incubated for 48 hrs by sulforhodamine B assay relative to control; details: read-out: Activity
UACC-257 = experiment: Growth inhibition of human UACC-257 cells assessed as cell growth at 0.01 uM incubated for 48 hrs by sulforhodamine B assay relative to control; details: read-out: Activity
MDA-MB-435 = experiment: Growth inhibition of human MDA-MB-435 cells incubated for 48 hrs by sulforhodamine B assay
TK-10 = experiment: Growth inhibition of human TK-10 cells assessed as cell growth at 0.01 uM incubated for 48 hrs by sulforhodamine B assay relative to control; details: read-out: Activity
RXF 393 = experiment: Growth inhibition of human RXF 393 cells assessed as cell growth at 100 uM incubated for 48 hrs by sulforhodamine B assay relative to control; details: read-out: Activity
COLO 205 = experiment: Growth inhibition of human COLO 205 cells assessed as cell growth at 0.1 uM incubated for 48 hrs by sulforhodamine B assay relative to control; details: read-out: Activity
HT-29 = experiment: Growth inhibition of human HT-29 cells assessed as cell growth at 0.01 uM incubated for 48 hrs by sulforhodamine B assay relative to control; details: read-out: Activity
KM12 = experiment: Growth inhibition of human KM12 cells assessed as cell growth at 100 uM incubated for 48 hrs by sulforhodamine B assay relative to control; details: read-out: Activity
MCF7 = experiment: Growth inhibition of human MCF7 cells assessed as cell growth at 0.01 uM incubated for 48 hrs by sulforhodamine B assay relative to control; details: read-out: Activity
UACC-62 [2] = experiment: Growth inhibition of human UACC-62 cells assessed as cell growth at 1 uM incubated for 48 hrs by sulforhodamine B assay relative to control; details: read-out: Activity
SF-268 = experiment: Growth inhibition of human SF-268 cells assessed as cell growth at 0.01 uM incubated for 48 hrs by sulforhodamine B assay relative to control; details: read-out: Activity
Hs-578T [3] = experiment: Growth inhibition of human Hs-578T cells assessed as cell growth at 0.01 uM incubated for 48 hrs by sulforhodamine B assay relative to control; details: read-out: Activity
SK-MEL-28 [4] = experiment: Growth inhibition of human SK-MEL-28 cells assessed as cell growth at 0.01 uM incubated for 48 hrs by sulforhodamine B assay relative to control; details: read-out: Activity
NCI-H460 [5] = experiment: Growth inhibition of human NCI-H460 cells incubated for 48 hrs by sulforhodamine B assay
SNB-19 [6] = experiment: Growth inhibition of human SNB-19 cells assessed as cell growth at 0.1 uM incubated for 48 hrs by sulforhodamine B assay relative to control; details: read-out: Activity
SK-MEL-28 [7] = experiment: Growth inhibition of human SK-MEL-28 cells assessed as cell growth at 0.1 uM incubated for 48 hrs by sulforhodamine B assay relative to control; details: read-out: Activity
NCI-H23 = experiment: Growth inhibition of human NCI-H23 cells assessed as cell growth at 0.01 uM incubated for 48 hrs by sulforhodamine B assay relative to control; details: read-out: Activity
NCI-H226 = experiment: Growth inhibition of human NCI-H226 cells assessed as cell growth at 0.01 uM incubated for 48 hrs by sulforhodamine B assay relative to control; details: read-out: Activity
NCI-H460 [8] = experiment: Growth inhibition of human NCI-H460 cells assessed as cell growth at 100 uM incubated for 48 hrs by sulforhodamine B assay relative to control; details: read-out: Activity
HCT-116 = experiment: Growth inhibition of human HCT-116 cells assessed as cell growth at 1 uM incubated for 48 hrs by sulforhodamine B assay relative to control; details: read-out: Activity
SF-295 = experiment: Growth inhibition of human SF-295 cells assessed as cell growth at 0.1 uM incubated for 48 hrs by sulforhodamine B assay relative to control; details: read-out: Activity
NCI-H322M [9] = experiment: Growth inhibition of human NCI-H322M cells assessed as cell growth at 0.1 uM incubated for 48 hrs by sulforhodamine B assay relative to control; details: read-out: Activity
NCI/ADR-RES = experiment: Growth inhibition of human NCI/ADR-RES cells assessed as cell growth at 1 uM incubated for 48 hrs by sulforhodamine B assay relative to control; details: read-out: Activity
DU-145 = experiment: Growth inhibition of human DU-145 cells incubated for 48 hrs by sulforhodamine B assay
SNB-19 [10] = experiment: Growth inhibition of human SNB-19 cells assessed as cell growth at 1 uM incubated for 48 hrs by sulforhodamine B assay relative to control; details: read-out: Activity
NCI-H322M [11] = experiment: Growth inhibition of human NCI-H322M cells assessed as cell growth at 1 uM incubated for 48 hrs by sulforhodamine B assay relative to control; details: read-out: Activity
Hs-578T [12] = experiment: Growth inhibition of human Hs-578T cells incubated for 48 hrs by sulforhodamine B assay
IGROV-1 = experiment: Growth inhibition of human IGROV-1 cells assessed as cell growth at 0.1 uM incubated for 48 hrs by sulforhodamine B assay relative to control; details: read-out: Activity
ACHN = experiment: Growth inhibition of human ACHN cells incubated for 48 hrs by sulforhodamine B assay
HCC 2998 = experiment: Growth inhibition of human HCC 2998 cells incubated for 48 hrs by sulforhodamine B assay
A498 = experiment: Growth inhibition of human A498 cells assessed as cell growth at 0.01 uM incubated for 48 hrs by sulforhodamine B assay relative to control; details: read-out: Activity
UACC-62 [13] = experiment: Growth inhibition of human UACC-62 cells assessed as cell growth at 0.01 uM incubated for 48 hrs by sulforhodamine B assay relative to control; details: read-out: Activity
Hs-578T [14] = experiment: Growth inhibition of human Hs-578T cells assessed as cell growth at 1 uM incubated for 48 hrs by sulforhodamine B assay relative to control; details: read-out: Activity
MDA-MB-468 = experiment: Growth inhibition of human MDA-MB-468 cells assessed as cell growth at 100 uM incubated for 48 hrs by sulforhodamine B assay relative to control; details: read-out: Activity
[15] = read-out: LC50 (the source's name)
[16] = read-out: pLC50 (the source's name) (converted)

CC(=O)Nc1cc(CO[Si](C)(C)C(C)(C)C)cc(NC(=O)c2ccc(C(=O)Nc3cccc(NC(=O)CCCN(C)C)c3)cc2)c1
growth at 100 µM (SNB-19 [1]): 95% | growth at 100 µM (SK-MEL-5): 73% | growth at 0.01 µM (UACC-257): 94% | GI50 (MDA-MB-435; read-out: GI50): > 75 µM | LC50 (50% lethal concentration) (MDA-MB-435; read-out: LC50): > 75 µM | TGI (MDA-MB-435; read-out: TGI): > 75 µM | GI50 (MDA-MB-435; read-out: pGI50 (converted)): > 75.9 µM | LC50 (50% lethal concentration) (MDA-MB-435; read-out: pLC50 (converted)): > 75.9 µM | TGI (MDA-MB-435; read-out: pTGI): > 75.9 µM | growth at 0.01 µM (TK-10): 96% | growth at 100 µM (RXF 393): 83% | growth at 0.1 µM (COLO 205): 100% | growth at 0.01 µM (HT-29): 102% | growth at 100 µM (KM12): 88% | growth at 0.01 µM (MCF7): 94% | growth at 1 µM (UACC-62 [2]): 99% | growth at 0.01 µM (SF-268): 99% | growth at 0.01 µM (Hs-578T [3]): 99% | growth at 0.01 µM (SK-MEL-28 [4]): 98% | GI50 (NCI-H460 [5]; read-out: GI50): > 75 µM | CC50 (NCI-H460 [5]; [15]): > 75 µM | TGI (NCI-H460 [5]; read-out: TGI): > 75 µM | GI50 (NCI-H460 [5]; read-out: pGI50 (converted)): > 75.9 µM | CC50 (NCI-H460 [5]; [16]): > 75.9 µM | TGI (NCI-H460 [5]; read-out: pTGI): > 75.9 µM | growth at 0.1 µM (SNB-19 [6]): 96% | growth at 0.1 µM (SK-MEL-28 [7]): 95% | growth at 0.01 µM (NCI-H23): 101% | growth at 0.01 µM (NCI-H226): 96% | growth at 100 µM (NCI-H460 [8]): 89% | growth at 1 µM (HCT-116): 101% | growth at 0.1 µM (SF-295): 123% | growth at 0.1 µM (NCI-H322M [9]): 95% | growth at 1 µM (NCI/ADR-RES): 97% | GI50 (DU-145; read-out: GI50): > 75 µM | CC50 (DU-145; [15]): > 75 µM | TGI (DU-145; read-out: TGI): > 75 µM | GI50 (DU-145; read-out: pGI50 (converted)): > 75.9 µM | CC50 (DU-145; [16]): > 75.9 µM | TGI (DU-145; read-out: pTGI): > 75.9 µM | growth at 1 µM (SNB-19 [10]): 101% | growth at 1 µM (NCI-H322M [11]): 97% | GI50 (Hs-578T [12]; read-out: GI50): > 75 µM | CC50 (Hs-578T [12]; [15]): > 75 µM | TGI (Hs-578T [12]; read-out: TGI): > 75 µM | GI50 (Hs-578T [12]; read-out: pGI50 (converted)): > 75.9 µM | CC50 (Hs-578T [12]; [16]): > 75.9 µM | TGI (Hs-578T [12]; read-out: pTGI): > 75.9 µM | growth at 0.1 µM (IGROV-1): 103% | GI50 (ACHN; read-out: GI50): > 75 µM | CC50 (ACHN; [15]): > 75 µM | TGI (ACHN; read-out: TGI): > 75 µM | GI50 (ACHN; read-out: pGI50 (converted)): > 75.9 µM | CC50 (ACHN; [16]): > 75.9 µM | TGI (ACHN; read-out: pTGI): > 75.9 µM | GI50 (HCC 2998; read-out: GI50): > 75 µM | CC50 (HCC 2998; [15]): > 75 µM | TGI (HCC 2998; read-out: TGI): > 75 µM | GI50 (HCC 2998; read-out: pGI50 (converted)): > 75.9 µM | CC50 (HCC 2998; [16]): > 75.9 µM | TGI (HCC 2998; read-out: pTGI): > 75.9 µM | growth at 0.01 µM (A498): 70% | growth at 0.01 µM (UACC-62 [13]): 96% | growth at 1 µM (Hs-578T [14]): 117% | growth at 100 µM (MDA-MB-468): 103%
